Measured values published in PMC4858680, “A platinum-based hybrid drug design approach to circumvent acquired resistance to molecular targeted tyrosine kinase inhibitors” (Scientific Reports, 2016).
Where two headings read alike, the source gives them in different places.

Legend:
Assay type in all cases: binding
VEGFR2 = biological target: T1, VEGFR2 (Homo sapiens, UniProt P35968); conditions: for Percent control: 10 μM; for remaining binding at 10 µM: read-out: Percent control
T1 construct: purchased DiscoveRx Corporation (KINOMEscan service)

FES = biological target: T2, FES (Homo sapiens, UniProt P07332); conditions: for remaining binding at 10 µM: read-out: Percent control
T2 construct: purchased DiscoveRx KINOMEscan

PYK2 = biological target: T3, PYK2 (Homo sapiens, UniProt Q14289); conditions: for remaining binding at 10 µM: read-out: Percent control
T3 construct: purchased DiscoveRx KINOMEscan

[1] = biological target: T4, JAK3(JH1domain-catalytic) (Homo sapiens, UniProt P52333); conditions: for remaining binding at 10 µM: read-out: Percent control
T4 construct: JAK3(JH1domain-catalytic); purchased DiscoveRx KINOMEscan

[2] = biological target: T5, TYK2(JH1domain-catalytic) (Homo sapiens, UniProt P29597); conditions: for Percent control: 10 μM; for remaining binding at 10 µM: read-out: Percent control
T5 construct: TYK2(JH1domain-catalytic); purchased DiscoveRx (KINOMEscan service)
T5 sequence (P29597 897-1176 limits assumed): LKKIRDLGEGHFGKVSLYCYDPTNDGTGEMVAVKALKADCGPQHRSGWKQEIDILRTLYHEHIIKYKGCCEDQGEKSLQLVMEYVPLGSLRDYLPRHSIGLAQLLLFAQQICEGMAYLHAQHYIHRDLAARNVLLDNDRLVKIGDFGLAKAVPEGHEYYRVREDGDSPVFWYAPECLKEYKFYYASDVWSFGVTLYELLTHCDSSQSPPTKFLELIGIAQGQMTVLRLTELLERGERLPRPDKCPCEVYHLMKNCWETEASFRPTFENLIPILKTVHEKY

FGR = biological target: T6, FGR (Homo sapiens, UniProt P09769); conditions: for Percent control: 10 μM; for remaining binding at 10 µM: read-out: Percent control
T6 construct: purchased DiscoveRx KINOMEscan

BMX = biological target: T7, BMX (Homo sapiens, UniProt P51813); conditions: for remaining binding at 10 µM: read-out: Percent control
T7 construct: purchased DiscoveRx KINOMEscan
T7 sequence (P51813 1-675): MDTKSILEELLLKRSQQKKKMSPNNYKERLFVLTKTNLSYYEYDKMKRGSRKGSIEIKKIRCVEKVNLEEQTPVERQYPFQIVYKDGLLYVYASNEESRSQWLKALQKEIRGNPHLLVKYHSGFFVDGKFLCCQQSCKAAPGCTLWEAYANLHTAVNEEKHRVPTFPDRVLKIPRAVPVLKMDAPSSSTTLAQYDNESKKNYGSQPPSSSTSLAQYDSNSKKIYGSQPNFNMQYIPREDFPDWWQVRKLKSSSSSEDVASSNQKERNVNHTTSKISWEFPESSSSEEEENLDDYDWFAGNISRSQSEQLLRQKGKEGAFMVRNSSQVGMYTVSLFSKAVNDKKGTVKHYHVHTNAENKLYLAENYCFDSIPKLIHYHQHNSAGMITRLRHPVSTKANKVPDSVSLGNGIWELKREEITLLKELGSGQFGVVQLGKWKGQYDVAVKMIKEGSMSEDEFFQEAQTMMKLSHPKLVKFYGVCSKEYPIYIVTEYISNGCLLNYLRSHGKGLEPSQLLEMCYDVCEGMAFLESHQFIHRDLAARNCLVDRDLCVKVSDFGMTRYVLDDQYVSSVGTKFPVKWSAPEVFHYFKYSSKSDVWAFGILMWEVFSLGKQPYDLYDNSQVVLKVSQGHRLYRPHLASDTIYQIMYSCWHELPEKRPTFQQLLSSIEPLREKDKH

ERBB4 = biological target: T8, ERBB4 (Homo sapiens, UniProt Q15303); conditions: for remaining binding at 10 µM: read-out: Percent control
T8 construct: purchased DiscoveRx KINOMEscan

ERBB3 = biological target: T9, ERBB3 (Homo sapiens, UniProt P21860); conditions: for Percent control: ERBB3, 10 μM; for remaining binding at 10 µM: read-out: Percent control
T9 construct: purchased DiscoveRx KINOMEscan

BRK = biological target: T10, BRK (Homo sapiens, UniProt Q13882); conditions: for Percent control: BRK, 10 μM; for remaining binding at 10 µM: read-out: Percent control
T10 construct: purchased DiscoveRx KINOMEscan

INSRR = biological target: T11, INSRR (Homo sapiens, UniProt P14616); conditions: for remaining binding at 10 µM: read-out: Percent control
T11 construct: purchased DiscoveRx KINOMEscan

EPHA2 = biological target: T12, EPHA2 (Homo sapiens, UniProt P29317); conditions: for remaining binding at 10 µM: read-out: Percent control
T12 construct: purchased DiscoveRx KINOMEscan

TRKB = biological target: T13, TRKB (Homo sapiens, UniProt Q16620); conditions: for remaining binding at 10 µM: read-out: Percent control
T13 construct: purchased DiscoveRx (KINOMEscan service)

EPHA3 = biological target: T14, EPHA3 (Homo sapiens, UniProt P29320); conditions: for remaining binding at 10 µM: read-out: Percent control
T14 construct: purchased DiscoveRx KINOMEscan
T14 sequence (P29320 21-983): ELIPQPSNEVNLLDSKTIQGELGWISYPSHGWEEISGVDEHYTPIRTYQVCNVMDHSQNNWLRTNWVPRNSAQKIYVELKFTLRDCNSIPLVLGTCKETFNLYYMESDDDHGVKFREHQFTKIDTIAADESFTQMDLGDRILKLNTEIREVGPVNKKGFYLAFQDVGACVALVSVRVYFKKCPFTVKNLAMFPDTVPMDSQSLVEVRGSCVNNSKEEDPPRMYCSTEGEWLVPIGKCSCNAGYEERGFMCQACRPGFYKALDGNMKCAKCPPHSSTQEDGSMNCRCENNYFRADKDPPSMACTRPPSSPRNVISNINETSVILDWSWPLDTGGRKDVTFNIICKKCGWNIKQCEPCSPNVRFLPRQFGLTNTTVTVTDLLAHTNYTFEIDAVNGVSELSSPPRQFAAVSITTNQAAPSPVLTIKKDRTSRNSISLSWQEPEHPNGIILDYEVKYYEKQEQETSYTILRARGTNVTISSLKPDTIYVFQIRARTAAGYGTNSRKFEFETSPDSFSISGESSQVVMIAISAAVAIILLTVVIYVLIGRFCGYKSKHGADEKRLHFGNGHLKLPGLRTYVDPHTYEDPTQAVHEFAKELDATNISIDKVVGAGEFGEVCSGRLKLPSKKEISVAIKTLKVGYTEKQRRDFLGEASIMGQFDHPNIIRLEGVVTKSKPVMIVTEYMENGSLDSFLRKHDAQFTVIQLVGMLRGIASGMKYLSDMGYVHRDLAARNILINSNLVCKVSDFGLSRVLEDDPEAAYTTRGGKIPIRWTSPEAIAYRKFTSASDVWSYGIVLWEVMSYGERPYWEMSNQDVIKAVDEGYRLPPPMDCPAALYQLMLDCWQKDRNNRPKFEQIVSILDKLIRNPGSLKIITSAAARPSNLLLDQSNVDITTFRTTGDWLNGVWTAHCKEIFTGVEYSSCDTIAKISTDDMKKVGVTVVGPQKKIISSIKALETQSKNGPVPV

[3] = JAK3(JH1domain-catalytic), 10 μM

T9 sequence (P21860 20-1342): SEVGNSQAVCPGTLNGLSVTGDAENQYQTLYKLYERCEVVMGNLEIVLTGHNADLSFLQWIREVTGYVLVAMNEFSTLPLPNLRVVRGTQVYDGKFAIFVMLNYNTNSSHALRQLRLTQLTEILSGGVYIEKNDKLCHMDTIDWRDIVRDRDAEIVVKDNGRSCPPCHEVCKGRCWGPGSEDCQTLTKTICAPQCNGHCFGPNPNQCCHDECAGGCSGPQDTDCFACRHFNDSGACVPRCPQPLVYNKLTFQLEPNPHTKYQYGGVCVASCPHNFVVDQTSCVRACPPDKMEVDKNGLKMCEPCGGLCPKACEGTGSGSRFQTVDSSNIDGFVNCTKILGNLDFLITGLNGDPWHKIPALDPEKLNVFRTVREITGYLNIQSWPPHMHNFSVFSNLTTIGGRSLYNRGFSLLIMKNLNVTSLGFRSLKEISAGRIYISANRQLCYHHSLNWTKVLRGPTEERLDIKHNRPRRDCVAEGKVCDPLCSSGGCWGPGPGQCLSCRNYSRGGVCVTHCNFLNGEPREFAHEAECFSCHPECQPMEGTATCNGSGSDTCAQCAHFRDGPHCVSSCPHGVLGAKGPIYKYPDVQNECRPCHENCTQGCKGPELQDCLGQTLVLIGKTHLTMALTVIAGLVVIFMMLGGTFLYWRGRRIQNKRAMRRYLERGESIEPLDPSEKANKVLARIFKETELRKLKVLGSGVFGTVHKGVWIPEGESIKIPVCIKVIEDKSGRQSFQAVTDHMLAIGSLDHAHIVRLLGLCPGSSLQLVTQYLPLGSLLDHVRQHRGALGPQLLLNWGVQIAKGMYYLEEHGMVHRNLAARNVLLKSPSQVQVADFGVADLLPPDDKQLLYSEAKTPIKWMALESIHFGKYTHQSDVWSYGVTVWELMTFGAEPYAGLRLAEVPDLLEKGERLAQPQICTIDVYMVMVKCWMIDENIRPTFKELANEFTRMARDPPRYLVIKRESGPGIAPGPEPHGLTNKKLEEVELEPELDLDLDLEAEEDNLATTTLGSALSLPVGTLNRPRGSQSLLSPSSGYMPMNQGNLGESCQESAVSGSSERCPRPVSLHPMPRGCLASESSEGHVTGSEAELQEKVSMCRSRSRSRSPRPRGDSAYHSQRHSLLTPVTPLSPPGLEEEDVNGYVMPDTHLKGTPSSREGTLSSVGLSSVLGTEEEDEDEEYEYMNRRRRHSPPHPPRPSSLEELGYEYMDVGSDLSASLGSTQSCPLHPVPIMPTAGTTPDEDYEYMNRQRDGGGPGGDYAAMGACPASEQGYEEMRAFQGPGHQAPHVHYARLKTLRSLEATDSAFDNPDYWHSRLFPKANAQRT
T4 sequence (P52333 813-1124 limits assumed): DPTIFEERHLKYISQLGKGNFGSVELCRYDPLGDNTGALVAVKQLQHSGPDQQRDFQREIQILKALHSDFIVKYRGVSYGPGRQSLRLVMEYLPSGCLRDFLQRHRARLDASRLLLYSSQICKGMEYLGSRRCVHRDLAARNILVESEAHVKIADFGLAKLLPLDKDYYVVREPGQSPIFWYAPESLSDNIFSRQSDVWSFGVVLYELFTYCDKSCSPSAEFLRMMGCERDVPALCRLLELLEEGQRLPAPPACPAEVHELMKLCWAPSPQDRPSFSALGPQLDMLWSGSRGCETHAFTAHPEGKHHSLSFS
T1 sequence (P35968 20-1356): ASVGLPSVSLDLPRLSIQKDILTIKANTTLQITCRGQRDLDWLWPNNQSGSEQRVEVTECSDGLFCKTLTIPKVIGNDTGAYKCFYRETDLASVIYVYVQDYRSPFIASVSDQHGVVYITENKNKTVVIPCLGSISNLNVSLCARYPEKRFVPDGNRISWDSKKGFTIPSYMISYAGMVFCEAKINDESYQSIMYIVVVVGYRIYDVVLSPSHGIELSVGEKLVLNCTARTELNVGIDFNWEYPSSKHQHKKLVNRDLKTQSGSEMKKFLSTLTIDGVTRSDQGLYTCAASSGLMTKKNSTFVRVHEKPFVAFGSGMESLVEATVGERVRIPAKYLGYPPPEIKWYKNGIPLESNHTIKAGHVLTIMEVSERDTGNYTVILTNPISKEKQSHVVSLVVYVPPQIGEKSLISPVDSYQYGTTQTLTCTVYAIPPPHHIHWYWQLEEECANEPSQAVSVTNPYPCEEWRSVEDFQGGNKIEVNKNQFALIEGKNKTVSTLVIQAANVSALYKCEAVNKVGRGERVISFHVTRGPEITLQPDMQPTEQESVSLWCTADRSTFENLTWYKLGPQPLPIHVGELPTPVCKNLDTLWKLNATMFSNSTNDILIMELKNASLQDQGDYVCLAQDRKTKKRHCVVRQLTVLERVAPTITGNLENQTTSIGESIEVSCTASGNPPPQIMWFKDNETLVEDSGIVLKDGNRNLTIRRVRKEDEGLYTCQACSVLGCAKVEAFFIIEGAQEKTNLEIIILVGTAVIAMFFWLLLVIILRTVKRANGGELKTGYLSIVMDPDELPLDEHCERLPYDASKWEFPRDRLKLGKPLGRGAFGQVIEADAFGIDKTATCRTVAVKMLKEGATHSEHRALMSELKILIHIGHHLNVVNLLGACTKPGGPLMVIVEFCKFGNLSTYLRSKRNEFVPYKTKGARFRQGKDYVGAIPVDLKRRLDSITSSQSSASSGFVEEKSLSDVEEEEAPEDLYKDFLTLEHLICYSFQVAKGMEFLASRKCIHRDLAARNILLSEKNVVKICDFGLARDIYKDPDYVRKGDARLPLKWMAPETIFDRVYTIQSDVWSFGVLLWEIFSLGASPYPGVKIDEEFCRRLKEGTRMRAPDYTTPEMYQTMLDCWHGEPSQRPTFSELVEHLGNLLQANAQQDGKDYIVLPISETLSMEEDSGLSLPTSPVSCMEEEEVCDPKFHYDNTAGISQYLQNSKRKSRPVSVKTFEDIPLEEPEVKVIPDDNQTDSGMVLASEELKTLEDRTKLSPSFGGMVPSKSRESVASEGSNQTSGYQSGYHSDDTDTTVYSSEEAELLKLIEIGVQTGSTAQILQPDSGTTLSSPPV
T12 sequence (P29317 24-976): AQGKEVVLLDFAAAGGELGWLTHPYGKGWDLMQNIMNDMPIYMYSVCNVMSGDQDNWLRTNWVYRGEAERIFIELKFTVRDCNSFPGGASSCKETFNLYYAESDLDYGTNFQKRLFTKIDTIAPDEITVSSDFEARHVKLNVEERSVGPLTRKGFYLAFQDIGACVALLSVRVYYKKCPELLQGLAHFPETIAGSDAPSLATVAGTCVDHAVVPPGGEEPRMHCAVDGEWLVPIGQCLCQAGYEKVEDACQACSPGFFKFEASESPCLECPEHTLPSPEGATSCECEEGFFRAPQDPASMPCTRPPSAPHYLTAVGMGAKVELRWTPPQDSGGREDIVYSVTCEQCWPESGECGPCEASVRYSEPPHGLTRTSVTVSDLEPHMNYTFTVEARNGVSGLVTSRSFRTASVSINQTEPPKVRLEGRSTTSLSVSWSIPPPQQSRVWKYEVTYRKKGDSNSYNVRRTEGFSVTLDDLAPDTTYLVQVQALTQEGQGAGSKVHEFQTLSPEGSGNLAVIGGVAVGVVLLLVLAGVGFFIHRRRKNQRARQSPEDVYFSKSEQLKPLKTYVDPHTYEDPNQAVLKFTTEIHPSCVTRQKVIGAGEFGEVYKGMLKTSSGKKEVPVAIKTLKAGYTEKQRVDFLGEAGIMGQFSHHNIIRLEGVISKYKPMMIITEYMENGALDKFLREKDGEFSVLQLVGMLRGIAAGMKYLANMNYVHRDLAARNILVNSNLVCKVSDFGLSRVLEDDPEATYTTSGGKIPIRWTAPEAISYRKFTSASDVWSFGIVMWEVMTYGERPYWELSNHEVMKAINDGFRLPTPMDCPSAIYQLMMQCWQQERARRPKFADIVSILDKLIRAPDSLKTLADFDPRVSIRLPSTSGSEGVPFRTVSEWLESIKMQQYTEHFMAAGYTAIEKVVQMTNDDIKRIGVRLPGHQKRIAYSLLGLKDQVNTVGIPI
T3 sequence (Q14289 whole entry): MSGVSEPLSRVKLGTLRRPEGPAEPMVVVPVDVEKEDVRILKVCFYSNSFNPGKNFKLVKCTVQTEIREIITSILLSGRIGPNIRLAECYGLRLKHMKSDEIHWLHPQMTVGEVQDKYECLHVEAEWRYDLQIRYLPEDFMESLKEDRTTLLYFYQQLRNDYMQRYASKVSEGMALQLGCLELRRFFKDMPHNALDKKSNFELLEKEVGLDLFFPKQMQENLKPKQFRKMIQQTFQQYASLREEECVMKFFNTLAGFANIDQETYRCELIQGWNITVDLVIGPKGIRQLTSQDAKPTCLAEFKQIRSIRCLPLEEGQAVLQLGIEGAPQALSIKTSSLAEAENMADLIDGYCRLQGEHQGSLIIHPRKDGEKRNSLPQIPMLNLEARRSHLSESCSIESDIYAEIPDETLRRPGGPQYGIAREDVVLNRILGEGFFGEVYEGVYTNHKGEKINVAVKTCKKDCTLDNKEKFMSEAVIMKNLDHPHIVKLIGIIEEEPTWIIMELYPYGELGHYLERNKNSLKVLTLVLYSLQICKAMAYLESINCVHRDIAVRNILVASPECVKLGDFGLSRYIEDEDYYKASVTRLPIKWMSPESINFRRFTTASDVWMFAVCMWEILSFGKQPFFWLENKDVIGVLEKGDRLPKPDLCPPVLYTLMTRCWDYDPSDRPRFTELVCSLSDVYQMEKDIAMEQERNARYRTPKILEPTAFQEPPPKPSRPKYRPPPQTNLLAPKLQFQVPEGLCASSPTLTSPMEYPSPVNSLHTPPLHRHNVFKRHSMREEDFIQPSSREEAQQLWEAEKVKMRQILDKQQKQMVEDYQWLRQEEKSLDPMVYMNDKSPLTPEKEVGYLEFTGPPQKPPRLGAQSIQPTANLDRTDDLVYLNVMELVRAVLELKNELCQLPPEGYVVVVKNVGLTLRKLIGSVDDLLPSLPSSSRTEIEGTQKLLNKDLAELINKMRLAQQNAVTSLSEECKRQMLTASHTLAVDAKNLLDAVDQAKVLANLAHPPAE

SMILES	Percent control (VEGFR2) [%]	Percent control (FES; FES, 10 μM) [%]	Percent control (PYK2; PYK2, 10 μM) [%]	Percent control [1, 3] [%]	Percent control [2] [%]	Percent control (FGR) [%]	Percent control (BMX; BMX, 10 μM) [%]	Percent control (ERBB4; ERBB4, 10 μM) [%]	Percent control (ERBB3) [%]	Percent control (BRK) [%]	Percent control (INSRR; INSRR, 10 μM) [%]	Percent control (EPHA2; EPHA2, 10 μM) [%]	Percent control (TRKB; TRKB, 10 μM) [%]	Percent control (EPHA3; EPHA3, 10 μM) [%]	remaining binding at 10 µM (VEGFR2) [%]	remaining binding at 10 µM [2] [%]	remaining binding at 10 µM (FGR) [%]	remaining binding at 10 µM (ERBB3) [%]	remaining binding at 10 µM (BRK) [%]	also measured
Cc1ccc(NC(=O)c2ccc(CN3CCN(C)CC3)cc2)cc1Nc1nccc(-c2cccnc2)[n+]1[Pt-2]1([Cl])[NH2+]C2CCCCC2[NH2+]1 (stereo not drawn) [1b, oxaliplatin-imatinib]	100	96	92	55	94	80	98	93	100	93	100	99	100	64						
C#Cc1cccc(Nc2c3cc(OCCOC)c(OCCOC)cc3nc[n+]2[Pt@SP2-2]([NH3+])([NH3+])[Cl])c1 [2a, cisplatin-erlotinib]	98	98	90	28	92	81	100	47	100	89	100	93	95	60						
COc1cc2c(Nc3ccc(Br)cc3F)[n+]([Pt-2]3([Cl])[NH2+]C4CCCCC4[NH2+]3)cnc2cc1OCC1CCN(C)CC1 (stereo not drawn) [3b, oxaliplatin-vandetanib]	3.2	100	80	100	83	33	92	56	4.1	27	100	43	72	30						
C#Cc1cccc(Nc2ncnc3cc(OCCOC)c(OCCOC)cc23)c1 [Erlotinib]															36.3	100	9.9	9.9	100	remaining binding at 10 µM (FES): 100%; remaining binding at 10 µM (PYK2): 100%; remaining binding at 10 µM [1]: 6.5%; remaining binding at 10 µM (BMX): 100%; remaining binding at 10 µM (ERBB4): 2.2%; remaining binding at 10 µM (INSRR): 100%; remaining binding at 10 µM (EPHA2): 100%; remaining binding at 10 µM (TRKB): 100%; remaining binding at 10 µM (EPHA3): 19.4%
Cc1ccc(NC(=O)c2ccc(CN3CCN(C)CC3)cc2)cc1Nc1nccc(-c2cccnc2)n1 [Imatinib, reference compound]	100	100	100	100		19.4	100	100	100	100	100	100	100	100		100				
COc1cc2c(Nc3ccc(Br)cc3F)ncnc2cc1OCC1CCN(C)CC1 [Vandetanib, reference compound]															7.6	100	2.6	1.6	1.6	remaining binding at 10 µM (FES; FES, 10 μM): 100%; remaining binding at 10 µM (PYK2; PYK2, 10 μM): 100%; remaining binding at 10 µM [1, 3]: 100%; remaining binding at 10 µM (BMX; BMX, 10 μM): 100%; remaining binding at 10 µM (ERBB4; ERBB4, 10 μM): 4.5%; remaining binding at 10 µM (INSRR; INSRR, 10 μM): 100%; remaining binding at 10 µM (EPHA2; EPHA2, 10 μM): 9.9%; remaining binding at 10 µM (TRKB; TRKB, 10 μM): 100%; remaining binding at 10 µM (EPHA3; EPHA3, 10 μM): 16.7%
